Residue numbers refer to the chain shown, from its start.
Experiments:
[1] = target: T1, OCT1 WT (Homo sapiens, UniProt O15245); assay: Concentration-dependent uptake kinetics, HEK293 cells overexpressing OCT1 WT; conditions: for Clint: OCT1 WT, ratio of vmax over Km
T1 sequence (O15245 1-554): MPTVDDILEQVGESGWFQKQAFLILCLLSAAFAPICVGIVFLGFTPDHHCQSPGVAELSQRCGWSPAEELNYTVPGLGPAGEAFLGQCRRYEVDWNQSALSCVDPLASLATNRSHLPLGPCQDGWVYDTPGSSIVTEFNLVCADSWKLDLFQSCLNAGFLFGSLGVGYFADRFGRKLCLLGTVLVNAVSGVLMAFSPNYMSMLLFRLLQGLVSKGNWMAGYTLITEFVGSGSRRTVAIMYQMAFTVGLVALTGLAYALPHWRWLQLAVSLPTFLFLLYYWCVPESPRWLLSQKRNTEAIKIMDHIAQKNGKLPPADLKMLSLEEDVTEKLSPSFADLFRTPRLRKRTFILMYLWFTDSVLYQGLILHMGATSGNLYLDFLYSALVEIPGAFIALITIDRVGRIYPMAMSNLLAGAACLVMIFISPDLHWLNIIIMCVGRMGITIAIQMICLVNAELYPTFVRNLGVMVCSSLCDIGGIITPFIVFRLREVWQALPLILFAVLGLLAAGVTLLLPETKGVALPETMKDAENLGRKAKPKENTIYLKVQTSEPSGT

[2] = target: T2, OCT1 Phe244Ala variant (Homo sapiens, UniProt O15245, F244A); assay: Concentration-dependent uptake kinetics, HEK293 cells overexpressing OCT1 Phe244Ala; conditions: for Clint: OCT1 Phe244Ala, ratio of vmax over Km; for Maximum transport capacity (vmax), Phe244Ala compared to WT / Km, Phe244Ala compared to WT: uptake kinetics, in words;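 on all read-outs here: cells exposed to rising substrate concentrations in buffer, intracellular drug measured by HPLC-tandem mass spectrometry, quantified against a standard curve, uptake referenced to empty vector-transfected HEK293 controls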
T2 sequence (O15245 1-554 F244A): T1 sequence (O15245 1-554) with F244A

[3] = target: T1, OCT1 WT; assay: Uptake screening (transport ratio over empty vector), HEK293 cells overexpressing OCT1 WT; type: cell-based; parameters: expressed in transfected cells;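 further: intracellular substrate levels quantified by HPLC–tandem mass spectrometry after uptake in HBSS+ buffer at 37 °C, stable Flp-In HEK293 lines, fold change versus empty vector–transfected cells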
[4] = target: T2, OCT1 Phe244Ala variant; assay: Uptake screening (transport ratio over empty vector), HEK293 cells overexpressing OCT1 Phe244Ala variant; type: cell-based; parameters: expressed in transfected cells;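 further: stably transfected HEK293 cells, intracellular substrate quantified by HPLC-tandem mass spectrometry in cell lysates, uptake in HBSS+ buffer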
[5] = target: T2, OCT1 Phe244Ala variant; assay: Inhibition of (R,S)-ethambutol uptake, HEK293 cells overexpressing OCT1 Phe244Ala; conditions: 20 μM inhibitor, 2 μM (R,S)-ethambutol, 5 min
[6] = uptake ratio over empty vector, HEK293 cells overexpressing OCT1 WT
[7] = Phe244Ala uptake relative to OCT1 WT
[8] = uptake ratio over empty vector, HEK293 cells overexpressing OCT1 Phe244Ala
[9] = Phe244Ala uptake relative to WT
[10] = uptake ratio of OCT1 WT-overexpressing HEK293 cells over empty vector
[11] = uptake ratio of OCT1 Phe244Ala-overexpressing HEK293 cells over empty vector

Structure (SMILES)	Mean_transport_ratio_WT [3, 6]	relative_Phe244Ala_uptake_in% [4, 7] [%]	Mean_transport_ratio_Phe244Ala [4, 8]	relative_Phe244Ala_uptake_in% [4, 9] [%]	further results
CCN1CCCC1CNC(=O)c1cc(S(N)(=O)=O)ccc1OC (stereo not shown) [Sulpiride]	–	–	–	–	vmax [1]: 237 ± 49.7 pmol × mg protein^−1 × min^−1; Clint [1]: 2.65 ± 3.09 ml × g Protein^−1 × min^−1; vmax [2]: 418 ± 65 pmol × mg protein^−1 × min^−1; Clint [2]: 4.01 ± 3.27 ml × g Protein^−1 × min^−1
Cc1ncc(C[n+]2csc(CCO)c2C)c(N)n1 [Thiamine]	42.169	21.749	9.954	–	Clint [1]: 7.51 ± 8.28 ml × g Protein^−1 × min^−1; Clint [2]: 2.70 ± 5.44 ml × g Protein^−1 × min^−1; Maximum transport capacity (vmax), Phe244Ala compared to WT [2]: reduced transport capacity
CC(=O)OC(C)C[N+](C)(C)C (stereo not drawn) [Methacholine, Acetyl-beta-methylcholine]	–	–	–	–	Transport activity of Phe244Ala in % of WT activity ([4]; 2.5 μM substrate, 2 min, Phe244Ala uptake relative to WT): ~10%; Clint [1]: 14.1 ± 15.2 ml × g Protein^−1 × min^−1; Clint [2]: 3.03 ± 8.29 ml × g Protein^−1 × min^−1; Km, Phe244Ala compared to WT [2]: higher Km values; Maximum transport capacity (vmax), Phe244Ala compared to WT [2]: more similar maximum transport capacities
COc1cc(Cc2cnc(N)nc2N)cc(OC)c1OC [Trimethoprim]	3.204	23.542	1.519	–	Inhibition of the Phe244Ala mutant compared to the WT transporter (screening) [5]: strongly reduced inhibition
CC(CCc1ccc(O)cc1)NCCc1ccc(O)c(O)c1 (stereo not shown) [Dobutamine]	6.852	–	15.606	249.567	Clint [1]: 3.03 ± 6.16 ml × g Protein^−1 × min^−1; Clint [2]: 7.88 ± 6.38 ml × g Protein^−1 × min^−1; Km, Phe244Ala compared to WT [2]: lower Km values
CC(CCc1ccc(O)cc1)NCC(O)c1ccc(O)cc1 (stereo not shown) [Ractopamine]	6.92	102.038	7.041	–	–
CC(C)(C)NCC(O)COc1cccc2c1CC(O)C(O)C2 (stereo not shown) [Nadolol]	–	142.415	–	–	Mean_transport_ratio_WT [3, 10]: 9.921; Mean_transport_ratio_Phe244Ala [4, 11]: 13.705
CCCC[N+]1(C)[C@@H]2C[C@@H](OC(=O)[C@H](CO)c3ccccc3)C[C@H]1[C@@H]1O[C@@H]12 (stereo partly shown) [Butylscopolamine]	24.775	–	30.852	125.561	–
Cc1cc(C(C)(C)C)c(O)c(C)c1CC1=NCCN1 [Oxymetazoline]	8.039	112.174	8.896	–	–
CNC(=C[N+](=O)[O-])NCCSCc1ccc(CN(C)C)o1 [Ranitidin]	17.125	66.532	11.729	–	–
NCCc1c[nH]c2ccccc12 [Tryptamin]	2.619	9.229	1.149	–	–
Oc1ccc(CC2NCCc3cc(O)c(O)cc32)cc1 (stereo not shown) [Higenamine]	–	44.661	–	–	Mean_transport_ratio_WT [3, 10]: 27.934; Mean_transport_ratio_Phe244Ala [4, 11]: 13.029
CC1(C)N=C(N)N=C(N)N1c1ccc(Cl)cc1 [Cycloguanil]	17.269	–	16.588	95.814	–
CC(C)(C)NCC(O)COc1cccc2c1CCC(=O)N2 (stereo not shown) [Carteolol]	3.378	–	8.502	315.540	Fold increased uptake rate by Phe244Ala compared to WT ([4]; 2.5 μM substrate, 2 min): 3.2 fold; Clint [1]: 1.01 ± 1.41 ml × g Protein^−1 × min^−1; Clint [2]: 7.82 ± 8.13 ml × g Protein^−1 × min^−1
CCN(CC)CCNC(=O)c1ccc(NS(C)(=O)=O)cc1 [Sematilid]	3.577	52.483	2.352	–	–
CNCCc1c[nH]c2ccc(O)cc12 [N-Methylserotonin]	–	24.160	–	–	Mean_transport_ratio_WT [3, 10]: 31.114; Mean_transport_ratio_Phe244Ala [4, 11]: 8.275

Structure (SMILES)	Mean_transport_ratio_WT [3, 6]	relative_Phe244Ala_uptake_in% [4, 7] [%]	Mean_transport_ratio_Phe244Ala [4, 8]	relative_Phe244Ala_uptake_in% [4, 9] [%]	further results
CNC(C)Cc1ccc2c(c1)OCO2 (stereo not shown) [3,4-Methylendioxy-N-methylamphetamin]	–	158.013	–	–	Mean_transport_ratio_WT [3, 10]: 1.723; Mean_transport_ratio_Phe244Ala [4, 11]: 2.142
O=C(O[C@H]1C[N+]2(CCCOc3ccccc3)CCC1CC2)C(O)(c1cccs1)c1cccs1 [(R)-Aclidinium]	5.059	–	6.14	126.640	–
O=C(O[C@H]1C[C@H]2CC[C@@H](C1)[N+]21CCCC1)C(O)(c1ccccc1)c1ccccc1 [Trospium]	27.542	106.940	29.384	–	–
CC[N+](CC)(CC)CC(=O)Nc1c(C)cccc1C [N-Ethyllidocaine]	41.537	–	53.323	129.074	–
CC(C)[N+](C)(CCOC(=O)C1c2ccccc2Oc2ccccc21)C(C)C [Propanthelin, Propantheline]	–	–	–	–	Clint [1]: 224 ± 251 ml × g Protein^−1 × min^−1; Clint [2]: 205 ± 124 ml × g Protein^−1 × min^−1
CNCc1ccc(-c2[nH]c3cc(F)cc4c3c2CCNC4=O)cc1 [Rucaparib]	2.018	161.437	2.644	–	–
NC(N)=NC(N)=Nc1ccc(Cl)cc1 [CPB]	17.903	–	13.901	76.322	–
CC[N+](CC)(CC)Cc1ccccc1 [Benzyltriethylammonium]	56.17	–	46.399	82.289	–
CC(=O)OC(C)C[N+](C)(C)C (stereo not drawn) [Acetyl-beta-Methylcholin]	46.311	–	7.521	14.392	–
CNC1(C)C2CCC(C2)C1(C)C (stereo not shown) [Mecamylamine]	–	-72.241	–	–	Mean_transport_ratio_WT [3, 10]: 1.579; Mean_transport_ratio_Phe244Ala [4, 11]: 0.581
COc1ccc2cc3[n+](cc2c1OC)CCc1cc2c(cc1-3)OCO2 [Berberine]	11.952	–	7.924	63.219	–
CN(C)CCc1c[nH]c2ccc(C[C@H]3COC(=O)N3)cc12 [Zolmitriptan]	–	–	–	–	Clint [1]: 21.6 ± 26.4 ml × g Protein^−1 × min^−1; Clint [2]: 13.3 ± 17.5 ml × g Protein^−1 × min^−1; Maximum transport capacity (vmax), Phe244Ala compared to WT [2]: reduced transport capacity
COc1cc(CCN)ccc1O [3-Methoxy-p-tyramine]	–	27.805	–	–	Mean_transport_ratio_WT [3, 10]: 3.981; Mean_transport_ratio_Phe244Ala [4, 11]: 1.829
NC(N)=Nc1nc(CSCCC(N)=NS(N)(=O)=O)cs1 [Famotidine]	–	–	–	–	Clint [1]: 45.8 ± 45.7 ml × g Protein^−1 × min^−1; Clint [2]: 12.1 ± 19.8 ml × g Protein^−1 × min^−1; Km, Phe244Ala compared to WT [2]: higher Km values; Maximum transport capacity (vmax), Phe244Ala compared to WT [2]: more similar maximum transport capacities
CNCC(O)c1ccc(O)c(OC)c1 (stereo not shown) [Metanephrine]	–	38.392	–	–	Mean_transport_ratio_WT [3, 10]: 7.123; Mean_transport_ratio_Phe244Ala [4, 11]: 3.351
CCNCC(O)c1cccc(O)c1 (stereo not shown) [Etilefrine]	6.81	–	3.319	39.917	–

Reference: article PMC11602988 (The Journal of Biological Chemistry, 2024)
